Columns and labels:
Format in all cases: cell-based
Phospho-Rb (Ser807/811) = assay: Phospho-Retinoblastoma (pRB) Cellular Assay; conditions: Homo sapiens, OVCAR-3, NIH OVCAR3 cells, 24 hours; for IC50: concentration giving 50% response; for Emax: maximum response, reference compound at 10 μM = 100%, read-out: pRB Ymax
Description: Phospho-Retinoblastoma (pRB) Cellular Assay
NIH OVCAR3 (HTB-161, American Type Culture Collection, Manassas VA) cells were grown up to passage 10 in culture media made up of RPMI (11835-030 Gibco, Grand Island NY), 20% HI FBS (16140-071, Gibco, Grand Island NY), and 0.01 mg/mL insulin from bovine pancreas (I6634-1G, Sigma Aldrich, St. Louis, MO).
The cells were seeded in a 384-well CulturPlate (6007688, Perkin Elmer, Waltham MA) at a density of 10,000 cells/well in 20 μL of the above culture media and incubated overnight at 37° C. and 5% CO2.
The next day, cells were treated using an Echo 650 (Beckman Coulter, Indianapolis IN) acoustic dispenser with 40 nL of compounds dissolved in DMSO at the appropriate serial dilutions (10 mM to […]). Cells were then incubated for 24 hours as above.
After 24 hours elapsed, media was removed from each well and shortly after 20 μL of the following mix was added: 12 μL deionized water, 4 μL lysis buffer, 4 μL of reconstituted antibody mix, and 1:100 phosphatase inhibitor. These components belong to the Phospho-Rb (Ser807/811) Cellular Kit (64RBS807PEY, Perkin Elmer, Waltham MA).
Plates were sealed and incubated away from light at room temperature for at least 4 hours before reading them on an EnVision plate reader (Perkin Elmer, Waltham MA) according to the kit manufacturer's protocol. The reference compound, N-(5-{[(5-tert-butyl-1,3-oxazol-2-yl)methyl]sulfanyl}-1,3-thiazol-2-yl)piperidine-4-carboxamide, at 10 μM was used to define 100% response. Assay results for each compound were reported as IC50, the concentration giving 50% response, and Ymax, the maximum response observed with the compound.

GSPT1 = GSPT1 (Homo sapiens, UniProt P15170+Q96SW2); assay: GSPT1 Cellular Degradation Assay (DF15-GSPT1-ePL); set-up: expressed in transfected cells; conditions: DF15-GSPT1-ePL cells, 20 hours
Chain of GSPT1 (P15170 whole entry, the tested form may be a part): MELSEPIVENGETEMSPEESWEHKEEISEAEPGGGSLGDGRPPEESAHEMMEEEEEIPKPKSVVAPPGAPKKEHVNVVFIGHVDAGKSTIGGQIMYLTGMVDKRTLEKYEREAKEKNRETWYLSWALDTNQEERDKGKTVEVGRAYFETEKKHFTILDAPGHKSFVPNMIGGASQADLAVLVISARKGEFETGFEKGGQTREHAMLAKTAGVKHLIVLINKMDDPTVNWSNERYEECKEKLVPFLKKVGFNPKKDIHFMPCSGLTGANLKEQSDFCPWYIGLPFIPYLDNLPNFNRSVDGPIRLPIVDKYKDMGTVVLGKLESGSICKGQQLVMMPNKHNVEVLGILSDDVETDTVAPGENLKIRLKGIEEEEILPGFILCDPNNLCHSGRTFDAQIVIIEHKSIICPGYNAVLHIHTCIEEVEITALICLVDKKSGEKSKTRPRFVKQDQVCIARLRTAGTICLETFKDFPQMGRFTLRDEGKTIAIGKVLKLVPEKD
Chain of GSPT1 (Q96SW2 whole entry, the tested form may be a part): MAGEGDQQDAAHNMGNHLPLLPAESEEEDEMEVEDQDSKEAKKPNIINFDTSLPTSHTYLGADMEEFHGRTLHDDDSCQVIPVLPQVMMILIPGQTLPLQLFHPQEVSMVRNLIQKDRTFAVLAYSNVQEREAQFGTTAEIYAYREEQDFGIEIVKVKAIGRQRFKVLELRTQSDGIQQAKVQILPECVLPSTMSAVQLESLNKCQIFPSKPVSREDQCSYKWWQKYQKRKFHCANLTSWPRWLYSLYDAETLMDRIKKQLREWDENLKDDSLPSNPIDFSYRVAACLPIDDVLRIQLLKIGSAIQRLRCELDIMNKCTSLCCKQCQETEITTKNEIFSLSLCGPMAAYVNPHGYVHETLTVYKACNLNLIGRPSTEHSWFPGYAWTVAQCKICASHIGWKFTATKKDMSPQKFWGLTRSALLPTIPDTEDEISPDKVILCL
Chain of GSPT1 (Q16531 whole entry partner, the tested form may be a part): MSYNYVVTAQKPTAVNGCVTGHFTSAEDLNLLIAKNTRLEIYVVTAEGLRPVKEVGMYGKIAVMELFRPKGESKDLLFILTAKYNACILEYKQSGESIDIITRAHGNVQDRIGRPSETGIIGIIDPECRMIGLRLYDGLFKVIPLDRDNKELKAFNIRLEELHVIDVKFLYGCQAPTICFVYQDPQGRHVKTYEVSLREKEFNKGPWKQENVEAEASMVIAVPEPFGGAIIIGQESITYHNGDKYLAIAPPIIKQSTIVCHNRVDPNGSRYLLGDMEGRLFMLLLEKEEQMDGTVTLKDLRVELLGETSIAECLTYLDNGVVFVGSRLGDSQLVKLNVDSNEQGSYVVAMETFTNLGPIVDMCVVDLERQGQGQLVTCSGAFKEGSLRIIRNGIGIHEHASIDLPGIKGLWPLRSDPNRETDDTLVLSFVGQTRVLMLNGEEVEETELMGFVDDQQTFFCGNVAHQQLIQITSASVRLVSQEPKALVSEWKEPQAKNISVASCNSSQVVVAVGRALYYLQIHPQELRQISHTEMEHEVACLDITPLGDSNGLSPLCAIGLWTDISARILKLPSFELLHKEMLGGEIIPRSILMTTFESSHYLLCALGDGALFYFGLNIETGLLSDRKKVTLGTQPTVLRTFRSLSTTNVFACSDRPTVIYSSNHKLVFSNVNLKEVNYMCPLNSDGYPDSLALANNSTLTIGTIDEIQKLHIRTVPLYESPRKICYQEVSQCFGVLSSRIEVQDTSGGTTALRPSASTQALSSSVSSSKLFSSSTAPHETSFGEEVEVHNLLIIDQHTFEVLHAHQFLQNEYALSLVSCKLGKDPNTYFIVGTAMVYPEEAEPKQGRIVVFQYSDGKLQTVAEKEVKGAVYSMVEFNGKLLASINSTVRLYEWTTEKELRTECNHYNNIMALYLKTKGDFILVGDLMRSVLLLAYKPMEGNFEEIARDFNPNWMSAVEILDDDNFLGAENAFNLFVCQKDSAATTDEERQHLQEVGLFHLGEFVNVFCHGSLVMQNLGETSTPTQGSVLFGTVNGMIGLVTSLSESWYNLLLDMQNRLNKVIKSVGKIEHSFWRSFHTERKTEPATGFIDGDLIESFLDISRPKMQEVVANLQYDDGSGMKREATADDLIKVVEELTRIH
Text: DF15-GSPT1-ePL was used for intracellular GSPT1 protein degradation detection in form of chemiluminescent signal, which was built on a human DF15 cell line (CVCL_Y429) with conditional co-expression of chimeric GSPT1 (target) and ePL/donor (enhanced ProLabel® by DiscoverX for enzyme fragment complementation with donor-acceptor pairing). The cells used the culture medium in two arrangements for assay and maintenance. During assay, it used Core-RPMI 1640 medium with 10% Fetal Bovine Serum (Heat Inactivated) and 1× Penicillin/Streptomycin; and during passage maintenance, used added ingredients: 0.1 mM NEAA, 1 mM sodium pyruvate, 25 mM Hepes, 0.1% Pluronic F-68, 1× Glutamin, 4 μg/mL Blasticidin (selection agent). Detection was performed on a 1536 well tissue culture plate (Corning #3727) with cells seeded in 3.5 μL core-RPMI 1640 at density of 0.25 million/mL after the pre-titrated test compounds in DMSO on ECHO plate were dispensed onto the assay plate by use of ECHO (liquid handing system via acoustic energy from Labcyte). Assay incubation lasted 20 hours in 37° C. incubator with 5% CO2; then followed by 30 minutes of plate-cooling at room temperature; then detection-reagent-mix was added in 3.5 μL/well with pre-defined proportion of enzyme acceptor, substrate, and lysis buffer. Plate signal reading for luminescence on an EnVision plate reader (PerkinElmer) was conducted after 60 minutes of former step at room temperature. Raw data was collected and processed with Dotmatics (data analyzer) for test compound's potency values. The reference compound, 3-[5-(3,6-dimethoxyisoquinolin-1-yl)-1-oxo-2,3-dihydro-1H-isoindol-2-yl]piperidine-2,6-dione, at […] was used to define 75% response. Assay results for each compound were reported as DC50, the concentration giving 50% response, and Dmax, the maximum response observed with the compound.

Cyclin E1 = Cyclin E1 (Homo sapiens, UniProt P24864+Q96SW2); assay: Cyclin E1 Cellular Degradation Assay (MSD); set-up: endogenous in cells; host or cells: OVCAR3; conditions: for DC50 / Dmax: Cyclin E1 cellular degradation; for Dmax: maximum degradation; for Ratio of GSPT1 DC50/Cyclin E1 DC50: selectivity for degradation of Cyclin E1 over GSPT1
Chain of Cyclin E1 (P24864 whole entry): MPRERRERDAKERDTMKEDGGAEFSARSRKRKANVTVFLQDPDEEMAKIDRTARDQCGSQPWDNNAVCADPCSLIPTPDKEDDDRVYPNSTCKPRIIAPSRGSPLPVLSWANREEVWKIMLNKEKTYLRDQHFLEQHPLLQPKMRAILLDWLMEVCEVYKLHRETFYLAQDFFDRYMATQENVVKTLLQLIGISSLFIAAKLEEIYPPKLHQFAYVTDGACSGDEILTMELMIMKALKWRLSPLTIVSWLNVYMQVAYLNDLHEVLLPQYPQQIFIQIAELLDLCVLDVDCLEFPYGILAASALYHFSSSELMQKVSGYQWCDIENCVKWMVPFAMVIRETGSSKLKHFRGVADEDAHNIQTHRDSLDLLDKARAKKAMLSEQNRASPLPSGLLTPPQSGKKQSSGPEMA
Chain of Cyclin E1 (Q96SW2 whole entry): as the sequence (Q96SW2 whole entry, the tested form may be a part) above
Chain of Cyclin E1 (Q16531 whole entry partner): as the sequence (Q16531 whole entry partner, the tested form may be a part) above
Description: Culturing cells: On Day 0, OVCAR3 cells were plated at 15,000 cells/well in 40 μL of culture medium (RPMI1640, 20% FBS, 0.01 insulin, 1% Anti/Anti) in a 384 well cell culture plate. Cell cultures were incubated for 24 hours at 37° C. and 5% CO2.
Coating MSD plates: On Day 1, rabbit anti-CCNE1 antibody (Abcam ab33911, 1 μg/mL in DPBS, […]) was dispensed to a Meso Scale Discovery plate (MSD L21XA). The MSD plate was spun briefly to ensure the solution coated the bottom of the well and incubated overnight at 4° C. On Day 2, the plate was washed 3 times with TBS +0.2% TWEEN, blocked for 1 hour with 3% MSD Blocker A (MSD R93AA-1, 30 μL/well), then washed again 3 times with TBS+0.2% TWEEN.
Treating and lysing cells: On Day 1, compounds of interest were dispensed into the cell cultures by acoustic dispensing technology. The cell cultures were then spun at 400 g for 4 minutes to disperse the compounds and incubated at 37° C. and 5% CO2 for 24 hours. After incubation, 40 μL of DPBS was added to the cell cultures to dilute the media. All liquid was gently discarded and immediately replaced with 30 μL of lysis buffer (MSD Tris Lysis buffer (MSD R60TX-2), Halt Protease inhibitor (ThermoFisher 78438), Phosphatase Inhibitor II (Sigma-Aldrich P5726), Phosphatase Inhibitor III (Sigma-Aldrich P0044), 0.02M PMSF (Sigma-Aldrich 7626), 0.1% SDS (VWR E719-100ML)). The plate was then sealed, shaken at 300 rpm at room temperature for 5 minutes, and freeze-thawed for optimum cell lysis.
Collecting data: After thawing, 25 μL of lysate was transferred to a coated MSD plate. The plate was then sealed and shaken at 300 rpm overnight in 4° C. On Day 3, the MSD plate was washed 3 times with TBS+0.2% TWEEN. Mouse anti-CCNE1 antibody (Abcam ab238081, 0.5 μg/mL in 1% MSD Blocker A, 10 μL/well) dispensed to the MSD plate, which was then sealed and shaken at room temperature for 3 hours. After the first antibody incubation, the plate was washed 3 times with TBS+0.2% TWEEN, then goat anti-mouse Sulfo-Tag antibody (MSD R32AC, 1 μg/mL in 1% MSD Blocker A, 10 μL/well) was dispensed to the MSD plate. The plate was sealed again and shaken at room temperature for 1 hour, then washed 3 times with TBS+0.2% TWEEN. After the final wash, 35 μL of 1× Read Buffer (MSD R92TC-1) was added to each well and the data was captured using the MSD plate reader. The reference compound, [2-(2,6-dioxopiperidin-3-yl)-4-methoxy-3-oxo-2,3-dihydro-1H-isoindol-5-yl]methyl N-[4-(3,4-difluorophenoxy)phenyl]carbamate, at […] was used to define […]. Assay results for each compound were reported as DC50, the concentration giving 50% response, and Dmax, the maximum response observed with the compound.

Row | IC50 (Phospho-Rb (Ser807/811)) [nM] | DC50 (GSPT1) [nM] | Dmax (GSPT1) [%] | DC50 (Cyclin E1) [nM] | Dmax (Cyclin E1) [%] | Ratio of GSPT1 DC50/Cyclin E1 DC50 (Cyclin E1) | SMILES | Emax (Phospho-Rb (Ser807/811)) [%]
1 | 100 | > 14000 | 27 | 129 | 106 | >109 | COc1c(COC(=O)Nc2ccc(Oc3ccc(F)c(C)c3)cc2)ccc2c1C(=O)N(C1CCC(=O)NC1=O)C2 (stereo not shown) [Example 96, [2-(2,6-dioxopiperidin-3-yl)-4-methoxy-3-oxo-2,3-dihydro-1H-isoindol-5-yl]methyl N-[4-(4-fluoro-3-methylphenoxy)phenyl]carbamate] | 117
2 | 163 | > 14000 | 32 | 284 | 113 | >49 | COc1c(COC(=O)Nc2ccc(Oc3cc(F)c(F)c(F)c3)cc2)ccc2c1C(=O)N(C1CCC(=O)NC1=O)C2 (stereo not shown) [Example 77, [2-(2,6-dioxopiperidin-3-yl)-4-methoxy-3-oxo-2,3-dihydro-1H-isoindol-5-yl]methyl N-[4-(3,4,5-trifluorophenoxy)phenyl]carbamate] | 94
3 | 28 | > 14000 | 10 | 42 | 107 | >332 | CC(C)(O)COc1c(COC(=O)Nc2ccc(Oc3cc(F)c(F)c(F)c3)cc2F)ccc2c1C(=O)N(C1CCC(=O)NC1=O)C2 (stereo not shown) [Example 165, [2-(2,6-dioxopiperidin-3-yl)-4-(2-hydroxy-2-methylpropoxy)-3-oxo-2,3-dihydro-1H-isoindol-5-yl]methyl N-[2-fluoro-4-(3,4,5-trifluorophenoxy)phenyl]carbamate] | 133
4 | 45 | > 14000 | 9 | 173 | 108 | >81 | CC(C)COc1c(COC(=O)Nc2ccc(Oc3ccc(F)c(F)c3)cc2)ccc2c1C(=O)N(C1CCC(=O)NC1=O)C2 (stereo not shown) [Example 138, [2-(2,6-dioxopiperidin-3-yl)-4-(2-methylpropoxy)-3-oxo-2,3-dihydro-1H-isoindol-5-yl]methyl N-[4-(3,4-difluorophenoxy)phenyl]carbamate] | 120
5 | 178 | > 14000 | 47 | 57 | 106 | >245 | COc1c(COC(=O)Nc2ccc(Oc3cc(F)ccc3Cl)cc2)ccc2c1C(=O)N(C1CCC(=O)NC1=O)C2 (stereo not shown) [Example 106, [2-(2,6-dioxopiperidin-3-yl)-4-methoxy-3-oxo-2,3-dihydro-1H-isoindol-5-yl]methyl N-[4-(2-chloro-5-fluorophenoxy)phenyl]carbamate] | 113
6 | 676 | > 14000 | 33 | 98 | 102 | >143 | O=C1CCC(N2Cc3ccc(COC(=O)Nc4ccc(Oc5ccccc5)cc4)c(Oc4ccccc4)c3C2=O)C(=O)N1 (stereo not shown) [Example 62, [2-(2,6-dioxopiperidin-3-yl)-3-oxo-4-phenoxy-2,3-dihydro-1H-isoindol-5-yl]methyl N-(4-phenoxyphenyl)carbamate] | 94
7 | 98 | > 14000 | 7 | 263 | 107 | >53 | CC(C)Oc1c(COC(=O)Nc2ccc(Oc3ccc(F)c(F)c3)cc2)ccc2c1C(=O)N([C@H]1CCC(=O)NC1=O)C2 (single isomer, unassigned) [Example 125] | 138
8 | 66 | > 14000 | 8 | 31 | 110 | >445 | O=C1CCC(N2Cc3ccc(COC(=O)Nc4ccc(Oc5cccc(F)c5)cc4)c(O[C@@H]4CCCOC4)c3C2=O)C(=O)N1 (stereo partly drawn) [Example 143, [2-(2,6-dioxopiperidin-3-yl)-4-[(3R)-oxan-3-yloxy]-3-oxo-2,3-dihydro-1H-isoindol-5-yl]methyl N-[4-(3-fluorophenoxy)phenyl]carbamate] | 153
9 | 117 | > 14000 | 35 | 181 | 105 | >77 | COc1c(COC(=O)Nc2ccc(Oc3ccccc3C(F)F)cc2)ccc2c1C(=O)N(C1CCC(=O)NC1=O)C2 (stereo not shown) [Example 85, [2-(2,6-dioxopiperidin-3-yl)-4-methoxy-3-oxo-2,3-dihydro-1H-isoindol-5-yl]methyl N-{4-[2-(difluoromethyl)phenoxy]phenyl}carbamate] | 98

Row | SMILES | IC50 (Phospho-Rb (Ser807/811)) [nM] | DC50 (GSPT1) [nM] | Dmax (GSPT1) [%] | DC50 (Cyclin E1) [nM] | Dmax (Cyclin E1) [%] | Ratio of GSPT1 DC50/Cyclin E1 DC50 (Cyclin E1) | Emax (Phospho-Rb (Ser807/811)) [%]
10 | O=C1CCC(N2Cc3ccc(COC(=O)Nc4ccc(Oc5ccc(F)c(F)c5)cc4)c(OC4CCC4)c3C2=O)C(=O)N1 (stereo not shown) [Example 126, [4-cyclobutoxy-2-(2,6-dioxopiperidin-3-yl)-3-oxo-2,3-dihydro-1H-isoindol-5-yl]methyl N-[4-(3,4-difluorophenoxy)phenyl]carbamate] | 117 | > 14000 | 9 | 140 | 107 | >100 | 129

Reference: patent US20250084056A1, “SUBSTITUTED OXOISOINDOLINYL PIPERIDINE-2,6-DIONE COMPOUNDS” (BRISTOL-MYERS SQUIBB COMPANY, priority 2023, published 2025)
